# Results taken from patent US8318762B2, “Pyrazolospiroketone acetyl-CoA carboxylase inhibitors” (Pfizer Inc., priority 2008, dated 2012).
# Target: T1, recombinant human ACC2 (Homo sapiens, UniProt O00763)
# T1 construct: a full length Cytomax clone of ACC2 was purchased from Cambridge Bioscience Limited; made in house; host or cells: CHO cells (tetracycline induction, pcDNA5 FRT TO-TOPO); purified on a Softlink Soft Release Avidin column
# Assay: Measurement of human ACC2 inhibition (recombinant hACC2 Transcreener ADP detection FP assay)
# Assay type: biochemical
# Conditions: not given
# Procedure: [3] Measurement of human ACC2 inhibition. Human ACC2 inhibition was measured using purified recombinant human ACC2 (hrACC2). […] The ACC2 was expressed in CHO cells by tetracycline induction and harvested in 5 liters of DMEM/F12 with glutamine, biotin, hygromycin and blasticidin with 1 μg/mL tetracycline (Invitrogen, Carlsbad, Calif.). The conditioned medium containing ACC2 was then applied to a Softlink Soft Release Avidin column (Promega, Madison, Wis.) and eluted with 5 mM biotin. […] The purified ACC2 was dialyzed in 50 mM Tris, 200 mM NaCl, 4 mM DTT, 2 mM EDTA, and 5% glycerol. […] The final conditions for the assay were 50 mM HEPES, pH7.5, 5 mM MgCl2, 5 mM tripotassium citrate, 2 mM DTT, 0.5 mg/mL BSA, 30 μM acetyl-CoA, 50 μM ATP, and 8 mM KHCO3. Typically, a 10 μl reaction was run for 1 hour at room temperature, and 10 μl of Transcreener stop and detect buffer was added and incubated for an additional 1 hour.
# T1 sequence (O00763 whole entry): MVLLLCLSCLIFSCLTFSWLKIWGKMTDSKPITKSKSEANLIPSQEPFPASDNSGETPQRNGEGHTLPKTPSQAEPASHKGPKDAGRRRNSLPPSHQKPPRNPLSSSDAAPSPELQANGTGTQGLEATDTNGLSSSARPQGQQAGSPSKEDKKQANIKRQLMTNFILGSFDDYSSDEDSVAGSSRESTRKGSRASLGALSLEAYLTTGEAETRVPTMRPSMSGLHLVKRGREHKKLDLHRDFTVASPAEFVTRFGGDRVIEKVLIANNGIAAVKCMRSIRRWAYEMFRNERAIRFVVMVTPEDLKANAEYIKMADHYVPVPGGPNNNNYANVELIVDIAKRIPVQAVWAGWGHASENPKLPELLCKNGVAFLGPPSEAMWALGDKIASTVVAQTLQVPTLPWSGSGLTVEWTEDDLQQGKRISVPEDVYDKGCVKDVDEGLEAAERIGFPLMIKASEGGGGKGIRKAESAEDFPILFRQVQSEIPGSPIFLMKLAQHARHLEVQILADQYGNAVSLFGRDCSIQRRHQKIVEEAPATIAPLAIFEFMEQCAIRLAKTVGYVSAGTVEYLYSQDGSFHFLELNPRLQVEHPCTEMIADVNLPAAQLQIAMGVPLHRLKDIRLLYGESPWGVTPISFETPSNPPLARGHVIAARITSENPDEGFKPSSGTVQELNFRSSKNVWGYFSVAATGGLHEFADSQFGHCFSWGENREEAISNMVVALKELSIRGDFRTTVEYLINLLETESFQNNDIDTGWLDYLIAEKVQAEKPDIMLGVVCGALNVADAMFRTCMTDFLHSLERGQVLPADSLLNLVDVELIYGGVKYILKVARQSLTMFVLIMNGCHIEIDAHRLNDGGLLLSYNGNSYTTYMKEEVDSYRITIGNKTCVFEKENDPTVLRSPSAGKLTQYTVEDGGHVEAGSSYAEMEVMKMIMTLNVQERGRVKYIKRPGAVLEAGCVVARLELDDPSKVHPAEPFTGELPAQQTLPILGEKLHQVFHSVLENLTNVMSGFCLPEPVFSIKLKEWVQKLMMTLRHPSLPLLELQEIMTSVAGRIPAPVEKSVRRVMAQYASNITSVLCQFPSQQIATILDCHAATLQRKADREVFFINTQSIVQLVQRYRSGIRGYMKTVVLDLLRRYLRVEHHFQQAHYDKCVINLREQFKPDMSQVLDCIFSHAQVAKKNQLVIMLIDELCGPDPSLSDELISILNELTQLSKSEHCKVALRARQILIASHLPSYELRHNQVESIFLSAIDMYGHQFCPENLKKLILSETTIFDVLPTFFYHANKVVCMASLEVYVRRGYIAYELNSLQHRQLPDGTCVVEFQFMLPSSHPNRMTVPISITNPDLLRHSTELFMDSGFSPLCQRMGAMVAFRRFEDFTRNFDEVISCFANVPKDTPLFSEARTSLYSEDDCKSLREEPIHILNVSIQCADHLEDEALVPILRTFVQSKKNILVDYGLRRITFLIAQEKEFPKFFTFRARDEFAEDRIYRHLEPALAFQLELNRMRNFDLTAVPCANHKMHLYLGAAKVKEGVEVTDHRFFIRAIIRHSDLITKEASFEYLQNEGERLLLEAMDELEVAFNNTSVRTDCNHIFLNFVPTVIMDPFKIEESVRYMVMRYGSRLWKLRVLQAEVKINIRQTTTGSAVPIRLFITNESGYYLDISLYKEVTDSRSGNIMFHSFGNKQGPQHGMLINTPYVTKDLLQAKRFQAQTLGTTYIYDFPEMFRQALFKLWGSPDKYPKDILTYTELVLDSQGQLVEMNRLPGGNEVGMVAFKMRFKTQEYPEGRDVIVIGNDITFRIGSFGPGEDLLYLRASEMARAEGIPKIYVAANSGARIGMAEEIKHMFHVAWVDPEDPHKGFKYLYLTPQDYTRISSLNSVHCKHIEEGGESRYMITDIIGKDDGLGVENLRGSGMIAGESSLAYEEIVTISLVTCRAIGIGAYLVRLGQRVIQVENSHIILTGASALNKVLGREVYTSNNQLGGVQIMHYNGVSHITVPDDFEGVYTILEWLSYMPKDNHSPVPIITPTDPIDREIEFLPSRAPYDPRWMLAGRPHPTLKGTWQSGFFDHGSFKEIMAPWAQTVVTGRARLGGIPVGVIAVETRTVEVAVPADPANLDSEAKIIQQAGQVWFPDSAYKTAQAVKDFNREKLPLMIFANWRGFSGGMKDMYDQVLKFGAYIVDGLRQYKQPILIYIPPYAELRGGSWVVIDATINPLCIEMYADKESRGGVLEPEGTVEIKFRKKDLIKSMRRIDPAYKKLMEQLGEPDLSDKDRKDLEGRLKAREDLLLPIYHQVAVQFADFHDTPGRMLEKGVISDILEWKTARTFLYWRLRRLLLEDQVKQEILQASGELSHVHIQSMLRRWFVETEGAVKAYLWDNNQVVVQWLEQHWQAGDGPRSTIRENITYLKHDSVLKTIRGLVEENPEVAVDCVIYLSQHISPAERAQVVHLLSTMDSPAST
row,Compound,IC50 [nM]
1,Cc1cc(C(=O)N2CCC3(CC2)CC(=O)c2nn(C)cc2O3)cc2cn[nH]c12 [1.029],629

# Same assay, conditions: recombinant hACC2 transcreener assay; read-out: rhACC2 IC50
row,Compound,IC50 [nM]
1,Cc1n[nH]c2c(C)cc(C(=O)N3CCC4(CC3)CC(=O)c3nn(C)c(C)c3O4)cc12 [1.005],117
2,Cc1n[nH]c2c(C)cc(C(=O)N3CCC4(CC3)CC(=O)c3nn(C5CCCCC5)cc3O4)cc12 [1.008],21
3,Cc1n[nH]c2c(C)cc(C(=O)N3CCC4(CC3)CC(=O)c3nn(C5CCCC5)cc3O4)cc12 [1.009],4
4,Cc1n[nH]c2c(C)cc(C(=O)N3CCC4(CC3)CC(=O)c3nn(C5CCC5)cc3O4)cc12 [1.010],4
5,Cc1n[nH]c2c(C)cc(C(=O)N3CCC4(CC3)CC(=O)c3nn(C(C)(C)C)c(C)c3O4)cc12 [1.011],15
6,Cc1n[nH]c2c(C)cc(C(=O)N3CCC4(CC3)CC(=O)c3nn(C(C)C)c(C)c3O4)cc12 [1.013],8
7,Cc1n[nH]c2c(C)cc(C(=O)N3CCC4(CC3)CC(=O)c3nn(C5CC5)c(C)c3O4)cc12 [1.014],9
8,Cc1n[nH]c2c(C)cc(C(=O)N3CCC4(CC3)CC(=O)c3nn(C5CCOC5)cc3O4)cc12 (centres unmarked) [1.016],22
9,COc1cc(-n2nc3c(c2C)OC2(CCN(C(=O)c4cc(C)c5[nH]ncc5c4)CC2)CC3=O)ccc1C#N [1.028],127
10,Cc1cc(C(=O)N2CCC3(CC2)CC(=O)c2nn(C)c(C)c2O3)cc2cn[nH]c12 [1.030],376
11,Cc1cc(C(=O)N2CCC3(CC2)CC(=O)c2nn(Cc4ccccc4)c(C)c2O3)cc2cn[nH]c12 [1.033],487
12,CCc1c2c(nn1C)C(=O)CC1(CCN(C(=O)c3cc(C)c4[nH]ncc4c3)CC1)O2 [1.035],367
13,Cc1cc(C(=O)N2CCC3(CC2)CC(=O)c2nn(C4CCCCC4)cc2O3)cc2cn[nH]c12 [1.037],60
14,Cc1cc(C(=O)N2CCC3(CC2)CC(=O)c2nn(C(C)C)c(C)c2O3)cc2cn[nH]c12 [1.040],15
15,Cc1cc(C(=O)N2CCC3(CC2)CC(=O)c2nn(C4CCOC4)c(C)c2O3)cc2cn[nH]c12 (centres unmarked) [1.041],46
16,Cc1cc(C(=O)N2CCC3(CC2)CC(=O)c2nn(C(C)(C)C)c(C)c2O3)cc2cn[nH]c12 [1.043],43
17,COc1cc(C(=O)N2CCC3(CC2)CC(=O)c2nn(C(C)(C)C)c(C)c2O3)cc2cn[nH]c12 [1.054],29
18,COc1cc(C(=O)N2CCC3(CC2)CC(=O)c2nn(C(C)C)c(C)c2O3)cc2cn[nH]c12 [1.055],10
19,CCc1cc(C(=O)N2CCC3(CC2)CC(=O)c2nn(CC)c(C)c2O3)cc2cn[nH]c12 [1.056],35

row,Compound,IC50 [nM]
1,CCn1nc2c(c1C)OC1(CCN(C(=O)c3cc(Cl)c4[nH]ncc4c3)CC1)CC2=O [1.061],54
2,Cc1c2c(nn1C)C(=O)CC1(CCN(C(=O)c3cc(Cl)c4[nH]ncc4c3)CC1)O2 [1.063],137
3,CC(C)(C)n1cc2c(n1)C(=O)CC1(CCN(C(=O)c3cc(Cl)c4[nH]ncc4c3)CC1)O2 [1.065],8
4,CC(C)n1cc2c(n1)C(=O)CC1(CCN(C(=O)c3cc(Cl)c4[nH]ncc4c3)CC1)O2 [1.066],26
5,CC(C)n1cc2c(n1)C(=O)CC1(CCN(C(=O)c3ccc4[nH]ncc4c3)CC1)O2 [1.067],50
6,CCn1nc2c(c1C)OC1(CCN(C(=O)c3ccc4[nH]ncc4c3)CC1)CC2=O [1.068],84
7,Cc1c2c(nn1C)C(=O)CC1(CCN(C(=O)c3ccc4[nH]ncc4c3)CC1)O2 [1.070],713
8,Cn1cc2c(n1)C(=O)CC1(CCN(C(=O)c3ccc4[nH]ncc4c3)CC1)O2 [1.071],773
9,Cc1c2c(nn1C(C)(C)C)C(=O)CC1(CCN(C(=O)c3ccc4[nH]ncc4c3)CC1)O2 [1.072],61
10,Cc1c2c(nn1C(C)C)C(=O)CC1(CCN(C(=O)c3ccc4[nH]ncc4c3)CC1)O2 [1.073],35
11,COc1cc(C(=O)N2CCC3(CC2)CC(=O)c2nn(C(C)C)c(C)c2O3)cc2c(C)n[nH]c12 [1.078],4
12,CCn1nc2c(c1C)OC1(CCN(C(=O)c3ccc4[nH]nc(C)c4c3)CC1)CC2=O [1.080],36
13,Cc1n[nH]c2ccc(C(=O)N3CCC4(CC3)CC(=O)c3nn(C(C)C)cc3O4)cc12 [1.081],10
14,Cc1n[nH]c2ccc(C(=O)N3CCC4(CC3)CC(=O)c3nn(C(C)(C)C)cc3O4)cc12 [1.086],3
15,Cc1n[nH]c2ccc(C(=O)N3CCC4(CC3)CC(=O)c3nn(C5CCCCC5)cc3O4)cc12 [1.087],135
16,Cc1n[nH]c2ccc(C(=O)N3CCC4(CC3)CC(=O)c3nn(C5CCCC5)cc3O4)cc12 [1.088],16
17,Cc1n[nH]c2ccc(C(=O)N3CCC4(CC3)CC(=O)c3nn(C5CCC5)cc3O4)cc12 [1.089],22
18,Cc1n[nH]c2ccc(C(=O)N3CCC4(CC3)CC(=O)c3nn(C(C)(C)C)c(C)c3O4)cc12 [1.090],23
19,Cc1n[nH]c2ccc(C(=O)N3CCC4(CC3)CC(=O)c3nn(C(C)C)c(C)c3O4)cc12 [1.091],15

# Results, then the compound that gave them:
row,IC50 [nM],Compound
1,8,Cc1n[nH]c2c(C)cc(C(=O)N3CCC4(CC3)CC(=O)c3nn(C(C)C)cc3O4)cc12 [1.002]
2,20,CCCn1cc2c(n1)C(=O)CC1(CCN(C(=O)c3cc(C)c4[nH]nc(C)c4c3)CC1)O2 [1.004]
3,80,Cc1n[nH]c2c(C)cc(C(=O)N3CCC4(CC3)CC(=O)c3nn(C)cc3O4)cc12 [1.006]
4,189,CCc1c2c(nn1C)C(=O)CC1(CCN(C(=O)c3cc(C)c4[nH]nc(C)c4c3)CC1)O2 [1.007]
5,3,CCc1n[nH]c2c(C)cc(C(=O)N3CCC4(CC3)CC(=O)c3nn(C(C)C)cc3O4)cc12 [1.017]
6,34,CCOc1cc(C(=O)N2CCC3(CC2)CC(=O)c2nn(CC)c(C)c2O3)cc2c(CC)n[nH]c12 [1.018]
7,18,CCc1n[nH]c2c(C)cc(C(=O)N3CCC4(CC3)CC(=O)c3nn(CC)cc3O4)cc12 [1.019]
8,3,CCc1n[nH]c2c(C)cc(C(=O)N3CCC4(CC3)CC(=O)c3nn(C(C)(C)C)cc3O4)cc12 [1.020]
9,54,CCn1cc2c(n1)C(=O)CC1(CCN(C(=O)c3cc(C)c4[nH]ncc4c3)CC1)O2 [1.025]
10,5,CCc1n[nH]c2c(OC)cc(C(=O)N3CCC4(CC3)CC(=O)c3nn(C(C)C)cc3O4)cc12 [1.044]
11,22,CCc1n[nH]c2c(OC)cc(C(=O)N3CCC4(CC3)CC(=O)c3nn(CC)c(C)c3O4)cc12 [1.045]
12,29,CCc1n[nH]c2c(OC)cc(C(=O)N3CCC4(CC3)CC(=O)c3nn(CC)cc3O4)cc12 [1.046]
13,2,CCc1n[nH]c2c(OC)cc(C(=O)N3CCC4(CC3)CC(=O)c3nn(C(C)(C)C)cc3O4)cc12 [1.047]
14,18,CCc1n[nH]c2c(OC)cc(C(=O)N3CCC4(CC3)CC(=O)c3nn(C5CCCCC5)cc3O4)cc12 [1.048]
15,7,CCc1n[nH]c2c(OC)cc(C(=O)N3CCC4(CC3)CC(=O)c3nn(C5CCCC5)cc3O4)cc12 [1.049]
16,5,CCc1n[nH]c2c(OC)cc(C(=O)N3CCC4(CC3)CC(=O)c3nn(C5CCC5)cc3O4)cc12 [1.050]
17,17,COc1cc(C(=O)N2CCC3(CC2)CC(=O)c2nn(C(C)C)cc2O3)cc2cn[nH]c12 [1.051]
18,33,CCn1nc2c(c1C)OC1(CCN(C(=O)c3cc(OC)c4[nH]ncc4c3)CC1)CC2=O [1.052]

row,IC50 [nM],Compound
1,62,CCn1cc2c(n1)C(=O)CC1(CCN(C(=O)c3cc(OC)c4[nH]ncc4c3)CC1)O2 [1.053]
2,40,CCc1cc(C(=O)N2CCC3(CC2)CC(=O)c2nn(CC)cc2O3)cc2cn[nH]c12 [1.057]
3,210,CCc1cc(C(=O)N2CCC3(CC2)CC(=O)c2nn(C)cc2O3)cc2cn[nH]c12 [1.059]
4,6,CCc1cc(C(=O)N2CCC3(CC2)CC(=O)c2nn(C(C)(C)C)cc2O3)cc2cn[nH]c12 [1.060]
5,43,CCn1cc2c(n1)C(=O)CC1(CCN(C(=O)c3cc(Cl)c4[nH]ncc4c3)CC1)O2 [1.062]
6,197,CCn1cc2c(n1)C(=O)CC1(CCN(C(=O)c3ccc4[nH]ncc4c3)CC1)O2 [1.069]
7,6,COc1cc(C(=O)N2CCC3(CC2)CC(=O)c2nn(C(C)C)cc2O3)cc2c(C)n[nH]c12 [1.075]
8,2,COc1cc(C(=O)N2CCC3(CC2)CC(=O)c2nn(C(C)(C)C)cc2O3)cc2c(C)n[nH]c12 [1.076]
9,15,CCn1nc2c(c1C)OC1(CCN(C(=O)c3cc(OC)c4[nH]nc(C)c4c3)CC1)CC2=O [1.077]
10,12,CCn1cc2c(n1)C(=O)CC1(CCN(C(=O)c3cc(OC)c4[nH]nc(C)c4c3)CC1)O2 [1.079]
11,53,CCCn1cc2c(n1)C(=O)CC1(CCN(C(=O)c3ccc4[nH]nc(C)c4c3)CC1)O2 [1.082]
12,43,CCn1cc2c(n1)C(=O)CC1(CCN(C(=O)c3ccc4[nH]nc(C)c4c3)CC1)O2 [1.083]
13,403,Cc1n[nH]c2ccc(C(=O)N3CCC4(CC3)CC(=O)c3nn(C)cc3O4)cc12 [1.085]
14,18,CCc1n[nH]c2ccc(C(=O)N3CCC4(CC3)CC(=O)c3nn(CC)cc3O4)cc12 [1.093]
15,397,CCc1n[nH]c2ccc(C(=O)N3CCC4(CC3)CC(=O)c3nn(C)cc3O4)cc12 [1.095]
16,12,CCc1n[nH]c2ccc(C(=O)N3CCC4(CC3)CC(=O)c3nn(C(C)(C)C)cc3O4)cc12 [1.096]
17,20,CCc1nn(C)c2c(OC)cc(C(=O)N3CCC4(CC3)CC(=O)c3nn(CC)cc3O4)cc12 [1.099]
